Reference: patent US9180183B2, “Phospholipid drug analogs” (Telormedix SA, priority 2010, dated 2015)
Where “and” joins values, the source holds several entries; their conditions need not be identical. Identical values can stand only once. Entries after “also recorded” stand apart in the source; their conditions may differ.

What was measured:
[1] = tested on: human PBMCs; assay: IL-6 secretion in human PBMCs, two batches of Compound A and SC12; assay type: cell-based; settings: 5 months storage in DMSO at 4° C.
Experimental: PBMCs were purified from two donors and plated into 96 well plates at 2×10^5 cells/well in RPMI media including human 2% heat inactivated AB serum, glutamine, Pen-strep and R-mercapto-ethanol. […] The conditioned media was removed for ELISA analyses for IL-6, and the EC50 value determined for each compound and each batch.
All compounds were tested in four concentrations (10-1-0, 1-0.01 micromolar).
Concentrations of IL-6 were determined by ELISA from R&D Systems using the Microsoft Excel software. The results were analyzed in Graph Pad Prism in order to prepare dose-response curves, and for determination of EC50 values.

[2] = tested on: HLA-DR+/CD20+ B cells; assay: FACS analysis of B cell activation in whole blood; assay type: cell-based, human; settings: 24 hours; 2 and 10 uM; three donors
Experimental: The FACS staining was performed according to the manufacturer's instructions. Lysis of red blood cells was performed before FACS staining in order to minimize auto-florescence. To include as many B cells and DCs in the study as possible the FACS analyses were performed on 500,000 cells in total for each staining. […] The results of the individual analysis were present as Mean Fluorescence Intensity
The analysis of expression of the activation marker CD40 on B cells was made on double positive HLA-DR (MHC class II) (P4 gate) and CD20 cells (B cell marker) (P8 gate).

[3] = tested on: HLA-DR+/CD11c-/CD123+ pDCs; assay: FACS analysis of plasmacytoid DC activation in whole blood; assay type: cell-based, human; settings: 24 hours; 0.1 and 0.5 uM; three donors
Experimental: A flow cytometric analysis was performed on whole blood from three donors after treatment with two compound concentrations for 24 h. The FACS analysis for donor 1 and donor 2 was made on another day than donor 3. The compound concentrations were as follows:
(§1) The FACS analysis was used to identify whether the test compounds could induce activation of B cells, and two different subsets of dendritic cells, namely the myeloid CD11c+/CD123− DCs and the plasmacytoid CD11c−/CD123+ DCs. The following markers were studied to identify the activation status of the different subsets:
(§2) The FACS staining was performed according to the manufacturer's instructions. Lysis of red blood cells was performed before FACS staining in order to minimize auto-florescence. To include as many B cells and DCs in the study as possible the FACS analyses were performed on 500,000 cells in total for each staining. A P1 gate was set only to include relevant cells on FSC vs. SSC (see FIGS. 12-15). The results of the individual analysis were present as Mean Fluorescence Intensity
The analysis of pDCs was based on HLA-DR+/CD11c−/CD123+ cells, thus all analyzed cells were included in the HLA-DR+ (P3) gate and CD11c−/CD123+ (Q1) gate. (FIGS. 13-15).

[4] = Serum exposure after intravesical chronic treatment in mouse; settings: intravesical, LLOQ 0.5 ng/ml
Experimental: Serum samples were taken at time points: day 0, 2 hours, day 1, 24 hours, and day 6, 2 hours.
Samples were evaporated and re-suspended in 70 microliters of acetonitrile/methanol 1:1.

[5] = Single dose intravenous toxicity study in rats; assay type: in vivo, Sprague Dawley rat
Experimental: An additional group, similarly composed, received the vehicle alone and acted as a control. […] Clinical signs were limited to piloerection and reduced activity, observed on the day of dosing.
In the main phase, 5 male and 5 female animals were dosed at 90 mg/kg and observed for a period of 14 days. A second group, similarly constituted, received the vehicle alone and acted as control. […] In addition, one male and one female dosed at 90 mg/kg were found dead on Day 2 of the study. Twitches, ataxia, piloerection, reduced activity and hunched posture were the major signs observed in animals before death. […] Piloerection was observed up to Day 3 of the study. A second group, similarly composed, was dosed at 80 mg/kg.

[6] = tested on: 73 primary molecular targets (human recombinant receptor types and subtypes or membrane fraction from rodent tissue homogenates); assay: Radioligand binding assay among 73 primary molecular targets; settings: SC12 at 30 microM
[7] = tested on: Cutaneous Squamous Cell Carcinoma (SCC) cell lines SCL-I, SCL-II, SCC-12, SCC-13; assay: Proapoptotic and cytotoxic effects on cutaneous SCC cell lines (real-time cell analysis, microscopy); assay type: cell-based, human
Experimental: SCC cells are grown under standard conditions (10% FBS).
Time and dose dependency of effects on total cell numbers have been investigated by real-time cell analysis, which is based on continuous monitoring of electric conductance in microtiter wells (E-plates, Roche), which corresponds to the cell numbers. […] For these assays 4 cell lines should be used to obtain a representative overview on the effects on SCC cells.

[8] = tested on: HLA-DR+/CD11c+/CD123- mDCs; assay: FACS analysis of myeloid DC activation in whole blood; assay type: cell-based, human; settings: 24 hours; 0.1 and 0.5 uM; three donors
Experimental: The FACS analysis for donor 1 and donor 2 was made on another day than donor 3. The compound concentrations were as follows:
as §1, §2
The analysis of myeloid DCs was based on HLA-DR+/CD11c+/CD123−cells, thus all analyzed cells was included in the HLA-DR+ (P3) gate and CD11c+/CD123− (Q4) gate (see gates in FIGS. 13-15).

[9] = tested on: Salmonella typhimurium TA1535, TA1537, TA98, TA100; assay: Bacterial mutation assay, Salmonella typhimurium; assay type: cell-based; settings: absence or presence of S9 metabolism
Experimental: The five tester strains TA1535, TA1537, TA98, TA100 and WP2 uvrA were used. Experiments were performed both in the absence and presence of metabolic activation, using liver S9 fraction from rats pre-treated with phenobarbitone and betanaphthoflavone. SC12 was used as a solution in dimethylsulfoxide (DMSO).

[10] = Plasma stability in human plasma (second experiment); settings: up to 120 min
Experimental: Second experiment: Test compounds (5 mM in DMSO) were diluted at the final concentration of 250 μM with ACN-MeOH 1:1.
Human plasma (1.180 ml) was spiked with 20 μl of 250 μM solution of the compound (4.16 μM final concentration) and aliquots of 50 μl volume were taken at 0, 15, 30, 60, 120 min and 5 hrs, and immediately quenched with 200 μl of a solution of Verapamil 250 ng/ml (internal standard, I.S.) in ACN:MeOH 95:5. Samples were then centrifuged for 20 min at 3000 rpm at 10° C. and analyzed as reported below. […] The supernatant fractions were analyzed by LC/MS/MS. Zero-time incubations were used as 100% values.
Stability was calculated as percentage remaining of the area ratio compound/I.S. at each time point vs. area ratio compound/I.S. at time 0 min.

CCCCCCCCCCCC(=O)OCC(COP(=O)(O)OCCNC(=O)c1ccc(Cn2c(=O)[nH]c3c(N)nc(OCCOC)nc32)cc1)OC(=O)CCCCCCCCCCC (centres unmarked) [SC12]
activity after storage (in words) [1]: have not lost activity
CD40 expression (MFI, in words) [2]: induced CD40 expression in donor 1 and donor 2 in all tested concentrations
CD80 expression in pDCs (MFI, in words) [3]: induces a slightly higher CD80 expression than compound A
CD86 expression in pDCs (MFI, in words) [3]: tendency to induce higher CD86 expression than compound A
SC12 levels in serum, Mean ± S.D. ([4]; Day 0, 2 hours): 0.5 ± 0.5 ng/mL
SC12 levels in serum, individual mice ([4]; Day 0, 2 hours): <LLOQ (2×) and 1.0 ng/ml and 0.5 ng/ml
SC12 levels in serum, Mean ± S.D. ([4]; Day 1, 24 hours): <LLOQ
SC12 levels in serum, individual mice ([4]; Day 1, 24 hours): <LLOQ
SC12 levels in serum, Mean ± S.D. ([4]; Day 6, 2 hours): <LLOQ
SC12 levels in serum, individual mice ([4]; Day 6, 2 hours): <LLOQ
mortality ([5]; 76 mg/kg i.v., preliminary phase): No mortality occurred
mortality and clinical signs ([5]; 80 mg/kg i.v., main phase): No mortality occurred and no clinical signs were recorded
clinical signs ([5]; 85 mg/kg i.v., preliminary phase): Piloerection
mortality and signs of toxicity ([5]; 90 mg/kg i.v., main phase): induced mortality or significant signs of toxicity
mortality ([5]; 90 mg/kg i.v., preliminary phase): No mortality occurred
mortality ([5]; 100 mg/kg i.v., preliminary phase): Both animals died at dosing
maximum tolerated dose ([5]; single intravenous administration, rat): 80 mg/kg
binding to receptors associated with pain-related syndromes (e.g. adenosine and sodium channel) [6]: did not bind
morphological changes (microscopy) ([7]; SCC cells, time of treatment 3d, 120 microM): cell detachment, morphological changes and inhibition of proliferation
cell numbers (real-time cell analysis, electric conductance) ([7]; cutaneous SCC cell lines): reduced cell numbers
CCR7 expression in mDCs (MFI, in words) [8]: less potent stimulator of CCR7 expression
CD80 expression in mDCs (MFI, in words) [8]: induced a noteworthy CD80 expression in all three donors
CD86 expression in mDCs (MFI, in words) [8]: induces a weak CD86 expression in donor 2 and 3, but not in donor 1
toxicity to tester strains ([9]; toxicity test, 50.0-5000 micrograms/plate): No toxicity was observed
reverse mutation / revertant colonies ([9]; up to 5000 micrograms/plate): did not induce two-fold increases in the number of revertant colonies; also recorded: does not induce reverse mutation
stability classification [10]: stable
